Data taken from article PMC5701947, “β1-Adrenergic Receptor Contains Multiple IA^k and IE^k Binding Epitopes That Induce T Cell Responses with Varying Degrees of Autoimmune Myocarditis in A/J Mice” (Frontiers in Immunology, 2017).

System: T cells (lymph node cells/splenocytes from immunized animals)
Test: T cell proliferation assay ([3H]-thymidine)
Type: cell-based, A/J mice
Settings: fold vs medium control
Experimental: At termination, lymph nodes (maxillary, mandibular, axillary, inguinal, and popliteal) and spleens were harvested from immunized animals to prepare single cell suspensions. Similarly, splenocytes were prepared from naive animals. After lysing the erythrocytes and washing, cell pellets were suspended in RPMI medium containing 10% fetal bovine serum, 1 mM sodium pyruvate, 4 mM L-glutamine, 1 × each of non-essential amino acids and vitamin mixture, and 100 U/ml penicillin–streptomycin (Lonza, Walkersville, MD, USA; hereafter called growth medium). In some experiments, CD4 T cells and CD8 T cells were enriched to a purity of ~95% by negative selection based on magnetic separation using IMAG (BD Biosciences, San Jose, CA, USA) ([31]). To stimulate CD4 and CD8 T cells, syngeneic naive irradiated splenocytes loaded with peptides were used as antigen-presenting cells at a ratio of 1:1. Cells were stimulated at a density of ~5 × 10^6 cells/ml in triplicates with or without the immunizing peptides (0–100 µg/ml) in growth medium. RNase 43–56 or HEL 46–61 were used as irrelevant controls. After 2 days, cells were pulsed with tritiated ^3[H]-thymidine (1 μCi/well; MP Biomedicals, Santa Ana, CA, USA), and 16 h later, proliferative responses were measured as counts per minute (cpm) using a Wallac liquid scintillation counter (Perkin Elmer, Waltham, MA, USA) ([26], [28], [30]).

[1] = 10 μg/ml, animals immunized with pool II
[2] = 100 μg/ml, animals immunized with pool II
[3] = 10 μg/ml, animals immunized with pool I
[4] = 100 μg/ml, animals immunized with pool I
[5] = 10 μg/ml, animals immunized with pool III
[6] = 100 μg/ml, animals immunized with pool III
[7] = 10 μg/ml, animals immunized with pool V
[8] = 100 μg/ml, animals immunized with pool V
[9] = 10 μg/ml, animals immunized with pool VI
[10] = 100 μg/ml, animals immunized with pool VI
[11] = 10 μg/ml, animals immunized with pool VII
[12] = 100 μg/ml, animals immunized with pool VII
[13] = 10 μg/ml, animals immunized with pool VIII
[14] = 100 μg/ml, animals immunized with pool VIII

BAR 101-120: 20-mer of mouse β1AR peptide library (ASADLVMGLLVVPFGATIVV; UniProt P34971 101-120, looked up, fragment)
T cell responses [1]: 1.01 fold | T cell responses [2]: 1.02 fold

β1AR 1-20: 20-mer of mouse β1AR peptide library (MGAGALALGASEPCNLSSAA; UniProt P34971 1-20, looked up, fragment)
T cell responses [3]: 1.52 fold | T cell responses [4]: 1.90 fold

β1AR 11-30: 20-mer of mouse β1AR peptide library (SEPCNLSSAAPLPDGAATAA; UniProt P34971 11-30, looked up, fragment)
T cell responses [3]: 1.84 fold | T cell responses [4]: 2.06 fold

β1AR 21-40: 20-mer of mouse β1AR peptide library (PLPDGAATAARLLVLASPPA; UniProt P34971 21-40, looked up, fragment)
T cell responses [3]: 1.33 fold | T cell responses [4]: 1.43 fold

β1AR 31-50: 20-mer of mouse β1AR peptide library (RLLVLASPPASLLPPASEGS; UniProt P34971 31-50, looked up, fragment)
T cell responses [3]: 0.97 fold | T cell responses [4]: 1.30 fold

β1AR 41-60: 20-mer of mouse β1AR peptide library (SLLPPASEGSAPLSQQWTAG; UniProt P34971 41-60, looked up, fragment)
T cell responses [3]: 0.84 fold | T cell responses [4]: 1.10 fold

β1AR 51-70: 20-mer of mouse β1AR peptide library (APLSQQWTAGMGLLLALIVL; UniProt P34971 51-70, looked up, fragment)
T cell responses [1]: 1.10 fold | T cell responses [2]: 1.38 fold

β1AR 71-90: 20-mer of mouse β1AR peptide library (LIVVGNVLVIVAIAKTPRLQ; UniProt P34971 71-90, looked up, fragment)
T cell responses [1]: 2.71 fold | T cell responses [2]: 3.78 fold

β1AR 81-100: 20-mer of mouse β1AR peptide library (VAIAKTPRLQTLTNLFIMSL; UniProt P34971 81-100, looked up, fragment)
T cell responses [1]: 1.65 fold | T cell responses [2]: 2.36 fold

β1AR 91-110: 20-mer of mouse β1AR peptide library (TLTNLFIMSLASADLVMGLL; UniProt P34971 91-110, looked up, fragment)
T cell responses [1]: 1.67 fold | T cell responses [2]: 1.93 fold

β1AR 111-130: 20-mer of mouse β1AR peptide library (VVPFGATIVVWGRWEYGSFF; UniProt P34971 111-130, looked up, fragment)
T cell responses [5]: 1.97 fold | T cell responses [6]: 2.49 fold

β1AR 121-140: 20-mer of mouse β1AR peptide library (WGRWEYGSFFCELWTSVDVL; UniProt P34971 121-140, looked up, fragment)
T cell responses [5]: 1.08 fold | T cell responses [6]: 1.26 fold

β1AR 131-150: 20-mer of mouse β1AR peptide library (CELWTSVDVLCVTASIETLC; UniProt P34971 131-150, looked up, fragment)
T cell responses [5]: 1.28 fold | T cell responses [6]: 1.72 fold

β1AR 151-170: 20-mer of mouse β1AR peptide library (VIALDRYLAITSPFRYQSLL; UniProt P34971 151-170, looked up, fragment)
T cell responses [5]: 2.24 fold | T cell responses [6]: 2.43 fold

β1AR 161-180: 20-mer of mouse β1AR peptide library (TSPFRYQSLLTRARARALVC; UniProt P34971 161-180, looked up, fragment)
T cell responses [5]: 1.03 fold | T cell responses [6]: 1.29 fold

β1AR 221-240: 20-mer of mouse β1AR peptide library (NRAYAIASSVVSFYVPLCIM; UniProt P34971 221-240, looked up, fragment)
T cell responses [7]: 1.18 fold | T cell responses [8]: 1.01 fold

β1AR 231-250: 20-mer of mouse β1AR peptide library (VSFYVPLCIMAFVYLRVFRE; UniProt P34971 231-250, looked up, fragment)
T cell responses [7]: 1.42 fold | T cell responses [8]: 1.85 fold

β1AR 241-260: 20-mer of mouse β1AR peptide library (AFVYLRVFREAQKQVKKIDS; UniProt P34971 241-260, looked up, fragment)
T cell responses [7]: 1.52 fold | T cell responses [8]: 2.02 fold

β1AR 251-270: 20-mer of mouse β1AR peptide library (AQKQVKKIDSCERRFLGGPA; UniProt P34971 251-270, looked up, fragment)
T cell responses [7]: 1.12 fold | T cell responses [8]: 1.81 fold

β1AR 261-280: 20-mer of mouse β1AR peptide library (CERRFLGGPARPPSPEPSPS; UniProt P34971 261-280, looked up, fragment)
T cell responses [7]: 0.86 fold | T cell responses [8]: 1.32 fold

β1AR 271-290: 20-mer of mouse β1AR peptide library (RPPSPEPSPSPGPPRPADSL; UniProt P34971 271-290, looked up, fragment)
T cell responses [9]: 1.05 fold | T cell responses [10]: 1.13 fold

β1AR 281-300: 20-mer of mouse β1AR peptide library (PGPPRPADSLANGRSSKRRP; UniProt P34971 281-300, looked up, fragment)
T cell responses [9]: 0.92 fold | T cell responses [10]: 0.93 fold

β1AR 291-310: 20-mer of mouse β1AR peptide library (ANGRSSKRRPSRLVALREQK; UniProt P34971 291-310, looked up, fragment)
T cell responses [9]: 0.87 fold | T cell responses [10]: 1.66 fold

β1AR 301-320: 20-mer of mouse β1AR peptide library (SRLVALREQKALKTLGIIMG; UniProt P34971 301-320, looked up, fragment)
T cell responses [9]: 2.03 fold | T cell responses [10]: 1.93 fold

β1AR 311-330: 20-mer of mouse β1AR peptide library (ALKTLGIIMGVFTLCWLPFF; UniProt P34971 311-330, looked up, fragment)
T cell responses [9]: 1.30 fold | T cell responses [10]: 1.21 fold

β1AR 321-340: 20-mer of mouse β1AR peptide library (VFTLCWLPFFLANVVKAFHR; UniProt P34971 321-340, looked up, fragment)
T cell responses [11]: 3.23 fold | T cell responses [12]: 2.21 fold

β1AR 331-350: 20-mer of mouse β1AR peptide library (LANVVKAFHRDLVPDRLFVF; UniProt P34971 331-350, looked up, fragment)
T cell responses [11]: 1.05 fold | T cell responses [12]: 1.49 fold

β1AR 341-360: 20-mer of mouse β1AR peptide library (DLVPDRLFVFFNWLGYANSA; UniProt P34971 341-360, looked up, fragment)
T cell responses [11]: 1.02 fold | T cell responses [12]: 1.47 fold

β1AR 351-370: 20-mer of mouse β1AR peptide library (FNWLGYANSAFNPIIYCRSP; UniProt P34971 351-370, looked up, fragment)
T cell responses [11]: 1.86 fold | T cell responses [12]: 1.82 fold

β1AR 361-380: 20-mer of mouse β1AR peptide library (FNPIIYCRSPDFRKAFQRLL; UniProt P34971 361-380, looked up, fragment)
T cell responses [11]: 2.06 fold | T cell responses [12]: 1.82 fold

β1AR 371-390: 20-mer of mouse β1AR peptide library (DFRKAFQRLLCCARRAACRR; UniProt P34971 371-390, looked up, fragment)
T cell responses [13]: 1.14 fold | T cell responses [14]: 0.60 fold

β1AR 401-420: 20-mer of mouse β1AR peptide library (SGCLARAGPPPSPGAPSDDD; UniProt P34971 401-420, looked up, fragment)
T cell responses [13]: 0.90 fold | T cell responses [14]: 0.88 fold

β1AR 411-430: 20-mer of mouse β1AR peptide library (PSPGAPSDDDDDDAGTTPPA; UniProt P34971 411-430, looked up, fragment)
T cell responses [13]: 0.93 fold | T cell responses [14]: 0.94 fold

β1AR 421-440: 20-mer of mouse β1AR peptide library (DDDAGTTPPARLLEPWTGCN; UniProt P34971 421-440, looked up, fragment)
T cell responses (10 μg/ml, animals immunized with pool IX): 1.12 fold | T cell responses (100 μg/ml, animals immunized with pool IX): 1.21 fold
